Experimental data reported in patent US10647687B2, “Spiropyrazine derivatives as inhibitors of non-apoptotic regulated cell-death” (Helmholtz Zentrum München Deutsches Forschungszentrum für …, priority 2014, dated 2020).
Where two headings read alike, the source gives them in different places.

Key:
Pfa1 cells = assay: Inhibition of non-apoptotic cell death after tamoxifen-induced GPx4 knockout (Pfa1/TAM, Example B.4); assay type: cell-based, mouse
Source text: To combat high intracellular ROS levels, mammalian cells have evolved an intricate network of ROS scavenging in cells, in which the thioredoxin and glutathione (GSH) dependent systems prevail. […] Knockout of GPx4 in neurons causes massive neurodegeneration in cortical, cerebellar and hippocampal neurons underscoring the high relevance of ROS-induced cell death signaling in the brain. Briefly, immortalised fibroblasts from these mice were made to contain tamoxifen-inducible CreERT2, which catalyzes the functional ablation of both copies of GPx4 and resulting in a complete knockout of GPx4, a massive ROS burst, and cell death in cell culture. These cells (Pfa1 cells) were used to characterize compounds disclosed herein, whereby tamoxifen (TAM) was given on day 0 along with the compound under test, and 72 hours later cell survival was evaluated using AlamarBlue.

SH-SY5Y cells = assay: Specificity: TNF-alpha-induced apoptosis in SH-SY5Y cells (Example B.3); assay type: cell-based, human; settings: compound 1 μM, TNF-alpha 10 ng/mL, FIG. 1
Experimental: SH-SY5Y cells were propagated and seeded in 96-well plates, together with compound N-1, N-2, N-10 of Table 1-N (FIG. 1A), compound O/S-6 or O/S-3 of Table 1-O/S (FIG. 1B), or compound C-12, C-91, or C-205 of Table 1-C (FIG. 1C) (each 1 μM) and TNF-alpha was added (final concentration: 10 ng/mL) to induce apoptosis. The apoptosis and pan-caspase inhibitor z-vad (final concentration: 50 μM) and the necroptosis inhibitor Necrostatin-1 (Nec-1; final concentration: 5 μM) were used for comparison. Control wells were established with vehicle only (DMSO), with and without treatment with TNF-alpha to induce apoptosis. Cells were incubated, and cell survival was detected and quantified. Percentage cell survival after TNF-alpha-induced apoptosis is shown (error bars indicate standard deviation (SD)).
Briefly, SH-SY5Y cells were propagated and seeded in 96-well plates, together with the compound to be tested (1 μM), generally as described in Example B.1, except they were seeded at 1,000 cell/well and instead of BSO, TNF-alpha (Invitrogen) was added to a final concentration of 10 ng/mL to induce apoptosis. The apoptosis and pan-caspase inhibitor Z-VAD-fink (Enzo Life Science; final concentration 50 μM) and the necroptosis inhibitor Necrostatin-1 (Nec-1; Enzo Life Science; final concentration 5 μM) were used for comparison. Control wells were established with vehicle only (DMSO), with and without treatment with TNF-alpha to induce apoptosis. Cells were incubated, and cell survival was detected and quantified as described in Example B.1.

[1] = tested on: mouse hippocampal cell line (Ht22); assay: Inhibition of glutamate-induced non-apoptotic cell death (Ht22/GLU, Example B.2); assay type: cell-based
Source text: Glutamate toxicity is conferred on cells from the mouse hippocampal cell line (Ht22) by inhibition of the cysteine/glutamate antiporter, System xc-, leading to impaired cysteine uptake and subsequent GSH depletion. This model is frequently used for mimicking glutathione depletion following oxidative stress in stroke, brain trauma and other neurodegenerative diseases and cellular conditions following ischemia (for example: van Leyen et al, J. Neurochem. 92:824-30 (2005)).
Compounds disclosed herein were evaluated for their ability to promote cell survival upon administration of a lethal dose of glutamate (GLU) to the cell-culture medium.
Briefly, Ht22cells (ATCC or Invitrogen) were propagated DMEM supplemented with 10% FBS/1% Penicillin-Streptomycin, and then seeded onto 96-well plates at a concentration of 2,000 cells/well in 100 μL of MEDIA, simultaneously with glutamate (Sigma Aldrich) to a final concentration of 5 mM, together with increasing concentrations of the compound to be tested (0.5 pM to 100 μM), and the plates incubated at 37° C./5% CO2 for 72 hours. Compound dilutions were prepared from 10 mM stocks dissolved in DMSO and diluted in media. Cells treated with glutamate alone were used as negative control and alpha-tocopherol (Sigma Aldrich) was used as positive control. Compound concentrations were tested in triplicate. After incubation, cell survival was detected and quantified as described in Example B.1.

[2] = Cellular toxicity, Pfa1 cells without TAM (Example B.5); assay type: cell-based; settings: mouse, read-out: TC50 (the source's name)
Source text: An estimate of the toxicity for compounds disclosed herein was obtained by using the same assay as described in Example B.4, but without the addition of TAM. […] Such TC50 values obtained for certain compounds disclosed herein, together with an approximate therapeutic window (estimated by dividing each TC50 by the corresponding IC50 determined from example B.4) are shown in Table 3 and Table 4.

[3] = tested on: human neuroblastoma cell line SH-SY5Y; assay: Inhibition of BSO-induced non-apoptotic cell death (SH-SY5Y/BSO, Example B.1); assay type: cell-based; settings: BSO-induced non-apoptotic cell death, SH-SY5Y cells, 50 μM BSO, 72 hours
Source text: L-Buthionine sulfoximine (BSO) is a well-known glutathione (GSH) depletory, which inhibits gamma-glutamyl-cysteine-synthetase, the enzyme catalyzing the rate-limiting step in GSH biosynthesis. The human neuroblastoma cell line SH-SY5Y is sensitive to BSO-induced intracellular glutathione depletion, which causes high levels of reactive oxygen species (ROS) and cellular stress mimicking cellular conditions following ischemia (cf., e.g., Yamada et al., Neurochem. Int. 59:1003-9 (2011)).
Compounds disclosed herein were evaluated for their ability to promote cell survival upon administration of a lethal dose of BSO to cell-culture medium. […] After incubation, cell survival was detected using the live/dead cell assay AquaBluer™ (MultiTarget Pharmaceuticals) and quantified using a fluorescence plate reader (excitation filter: 530-560 nm/emission filter: 590 nm) (SpectraMax M4; Molecular Devices). Fluorescence data so obtained was normalised to the percentage of surviving cells and IC50 values calculated using the GraphPad Prism (GraphPad Software, Inc) software package.

[4] = Mus musculus, methylated analogues of C-2
[5] = HT-22, 5 mM glutamate, 72 hours, cell survival, read-out: Ht22/GLU
[6] = Mus musculus, tamoxifen on day 0, cell survival after 72 hours
[7] = * not tested at higher concentrations
[8] = HT-22, 72 h, read-out: Ht22/GLU [μM]
[9] = HT-22, glutamate-induced non-apoptotic cell death, Ht22 cells, read-out: Ht22/GLU
[10] = Mus musculus, tamoxifen-induced GPx4 knockout, Pfa1 cells

| SMILES | IC50 [1, 5] [µM] | IC50 (Pfa1 cells; [6]) [µM] | CC50 [2, 7] [µM] | other results |
| --- | --- | --- | --- | --- |
| CN1/C(=N/Cc2cccc(Cl)c2)C2(CCCCC2)N(C)c2ccccc21 [C-2-2Me] | – | – | – | IC50 (Pfa1 cells; [4]): > 10 µM |
| CN1c2ccccc2N=C(NCc2cccc(Cl)c2)C12CCCCC2 [C-2-Me-I] | – | – | – | IC50 (Pfa1 cells; methylated analogues of C-2): > 10 µM |
| Clc1cccc(CNC2=Nc3ccccc3NC23CCCCC3)c1 [C-2] | – | – | – | IC50 (Pfa1 cells; [4]): < 0.01 µM |
| CC1CCC2(CC1)Nc1ccccc1N=C2NCc1ccccc1Cl (stereo not drawn) [C-91] | – | – | – | Percentage cell survival after TNF-alpha-induced apoptosis (SH-SY5Y cells): Non-inhibition of apoptotic cell-death |
| Clc1ccccc1CNC1=Nc2ccccc2NC12CCCCCC2 [C-205] | – | – | – | Percentage cell survival after TNF-alpha-induced apoptosis (SH-SY5Y cells): Non-inhibition of apoptotic cell-death |
| CC(C)CCNC1=Nc2ccccc2NC12CCCCCC2 [D-1] | < 1 | < 2 | 10 to 50 | – |
| c1ccc2c(c1)CCC2NC1=Nc2ccccc2NC12CCCCC2 [D-2] | < 1 | < 2 | 10 to 50 | – |
| c1ccc2c(c1)CCC2NC1=Nc2ccccc2NC12CCOCC2 [D-3] | < 5 | < 2 | 50 to 100 | – |
| c1ccc2c(c1)CCCC2NC1=Nc2ccccc2NC12CCCCC2 [D-4] | < 0.5 | < 0.2 | 20 to 50 | – |
| c1ccc2c(c1)CCC2NC1=Nc2ccccc2NC12CCNCC2 [D-5] | < 0.2 | < 0.1 | 5 to 10 | – |
| c1ccc2c(c1)N=C(NCCc1c[nH]c3ccccc13)C1(CCNCC1)N2 [D-6] | < 0.5 | < 0.1 | 5 to 10 | – |
| c1ccc2c(c1)CCCC2NC1=Nc2ccccc2NC12CCNCC2 [D-7] | < 0.2 | < 0.1 | 10 to 20 | – |
| Clc1cccc(CNC2=Nc3ccccc3NC23CC2CCC(C3)N2)c1 [D-8] | – | < 0.05 | 2 to 5 | IC50 [1, 8]: < 0.05 µM |
| c1ccc(CNC2=Nc3ccccc3NC23CC2CCC(C3)N2)cc1 [D-9] | – | < 0.5 | 5 to 10 | IC50 [1, 8]: < 0.5 µM |
| Clc1cccc(CNC2=Nc3ncccc3NC23CCCCC3)c1 [D-10] | < 5 | < 5 | 1 to 5 | – |
| Clc1cccc(CNC2=Nc3cc(Cl)ncc3NC23CCCCC3)c1 [D-11] | < 5 | < 5 | 10 to 50 | – |
| c1csc(CNC2=Nc3ccccc3NC23CCCCC3)c1 [D-12] | < 1 | < 5 | 10 to 50 | – |
| c1cncc(CNC2=Nc3ccccc3NC23CCCCC3)c1 [D-13] | < 5 | < 5 | 50 to 100 | – |

| SMILES | IC50 [1, 5] [µM] | IC50 (Pfa1 cells; [6]) [µM] | CC50 [2, 7] [µM] | other results |
| --- | --- | --- | --- | --- |
| CCOC(=O)c1ccc2c(c1)N=C(NC1CCCCC1)C1(CCCCC1)N2 [D-14] | < 0.5 | < 1 | 10 to 50 | – |
| CC(C)(C)NC1=Nc2ccccc2NC12CCOCC2 [D-15] | < 5 | < 5 | 50 to 100 | – |
| CC(C)(C)NC1=Nc2ccccc2NC12CCSCC2 [D-16] | < 1 | < 1 | > 5 | – |
| Cc1cc(CNC2=Nc3ccccc3NC23CCCCC3)on1 [D-17] | < 2 | < 5 | > 50 | – |
| Clc1cc2c(cc1Cl)NC1(CCCCC1)C(NCc1cccnc1)=N2 [D-19] | < 0.05 | < 0.5 | 10 to 50 | – |
| c1ccc2c(c1)N=C(NCc1nccs1)C1(CCCCC1)N2 [D-20] | < 2 | < 5 | > 50 | – |
| Clc1cc2c(cc1Cl)NC1(CCCCC1)C(NCc1cccs1)=N2 [D-21] | < 0.2 | < 0.5 | 5 to 10 | – |
| c1ccc2c(c1)N=C(NCc1cncs1)C1(CCCCC1)N2 [D-22] | < 5 | < 5 | > 50 | – |
| c1coc(CNC2=Nc3ccccc3NC23CCCCC3)c1 [D-23] | < 5 | < 5 | > 50 | – |
| c1ccc2c(c1)N=C(NCc1ccncc1)C1(CCCCC1)N2 [D-24] | < 5 | < 5 | > 50 | – |
| c1csc(CNC2=Nc3ccccc3NC23CCNCC3)c1 [D-181] | < 0.1 | < 0.5 | 20 to 50 | – |
| CN1CCC2(CC1)Nc1cc(Cl)c(Cl)cc1N=C2NCc1cccc(Cl)c1 [F-24] | < 0.02 | < 0.05 | 0.2 to 0.5 | – |
| C#CCCCCCCCCC(=O)N1CCC2(CC1)Nc1ccccc1N=C2NCc1cccc(Cl)c1 [F-25] | < 0.2 | < 0.2 | 10 to 20 | – |
| C#CCCCCCCCCC(=O)N1CCC2(CC1)Nc1cc(Cl)c(Cl)cc1N=C2NCc1cccc(Cl)c1 [F-26] | < 0.2 | < 0.2 | 10 to 20 | – |
| Clc1ccccc1CNC1=Nc2ccccc2NC12CCNCC2 [N-1] | – | – | – | Percentage cell survival after TNF-alpha-induced apoptosis (SH-SY5Y cells): Non-inhibition of apoptotic cell-death |
| Clc1cccc(CNC2=Nc3ccccc3NC23CCCNCC3)c1 (stereo not drawn) [N-185] | – | – | – | IC50 [3]: < 0.05 µM; IC50 [1, 9]: < 0.5 µM; IC50 (Pfa1 cells; [10]): < 0.2 µM; CC50 ([2]; cellular toxicity): 1 to 2 µM |
| Clc1ccc(CNC2=Nc3ccccc3NC23CCOCC3)cc1 [O/S-3] | – | – | – | Percentage cell survival after TNF-alpha-induced apoptosis (SH-SY5Y cells): Non-inhibition of apoptotic cell-death |
| O=S1(=O)CCC2(CC1)Nc1ccccc1N=C2NCc1cccc(Cl)c1 [O/S-370] | – | – | – | IC50 [3]: < 1 µM; IC50 [1, 9]: < 5 µM; IC50 (Pfa1 cells; [10]): < 2 µM; CC50 ([2]; cellular toxicity): 50 to 100 µM |
